According to PubChem BioAssay (NCI):
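Five concentrations, 48 hours, 96-well plates. GI50 is the concentration that inhibits growth by half. Definition used: TGI = concentration required for complete inhibition of growth.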

Columns and labels:
Assay in all cases: inhibition of tumour cell growth, NCI panel, 48 h
EKVX NSCLC = system: EKVX NSCLC
HT29 colon = system: HT29 colon
KM12 colon = system: KM12 colon
NCI-H522 lung = system: NCI-H522 lung
SF-268 CNS = system: SF-268 CNS
SNB-19 CNS = system: SNB-19 CNS
TK-10 renal = system: TK-10 renal
A498 renal = system: A498 renal
HCC-2998 colon = system: HCC-2998 colon
MALME-3M melanoma = system: MALME-3M melanoma

Compound	GI50 (EKVX NSCLC) [µM]	TGI (EKVX NSCLC) [µM]	GI50 (HT29 colon) [µM]	TGI (HT29 colon) [µM]	GI50 (KM12 colon) [µM]	TGI (KM12 colon) [µM]	GI50 (NCI-H522 lung) [µM]	TGI (NCI-H522 lung) [µM]	GI50 (SF-268 CNS) [µM]	TGI (SF-268 CNS) [µM]	GI50 (SNB-19 CNS) [µM]	TGI (SNB-19 CNS) [µM]	GI50 (TK-10 renal) [µM]	TGI (TK-10 renal) [µM]	TGI (A498 renal) [µM]	TGI (HCC-2998 colon) [µM]	TGI (MALME-3M melanoma) [µM]	GI50 (HCC-2998 colon) [µM]	GI50 (MALME-3M melanoma) [µM]	GI50 (A498 renal) [µM]
CN(c1cccc(C(=O)O)c1)c1cc(O/N=[N+](\[O-])N(C)C)c([N+](=O)[O-])cc1[N+](=O)[O-]	> 100	> 100	> 100	> 100	> 100	> 100	> 100	> 100	55.5	> 100	> 100	> 100	> 100	> 100						
CC1(Cl)C(=O)NC(=O)N([C@H]2C[C@H](O)[C@@H](CO)O2)C1N=[N+]=[N-] (some centres undefined)		> 100		> 100		> 100		> 100		> 100		> 100		> 100	> 100	> 100	> 100			
COc1ccc(-c2cc(=O)c3c(O)c(O)c(OC)cc3o2)cc1O		> 100		> 100		> 100		> 100		> 100		> 100		> 100	> 100	> 100	> 100			
O=C(NCCCN1CCN(CCCNC(=O)c2cccc3ccccc23)CC1)c1cccc2ccccc12		> 100		> 100		> 100						> 100		> 100	> 100	> 100	> 100			
Cc1cc(NS(=O)(=O)c2ccc(NC(=O)c3ccc(Cl)c4c(Nc5ccc(S(=O)(=O)Nc6cc(C)on6)cc5)c5ccccc5nc34)cc2)no1		64.9		41.6		44.3		33.2		42.3		32.4		71.1	47.4		48.7			
COC(=O)c1csc(-c2csc(CCNC(=O)OC(C)(C)C)n2)n1		> 100		> 100		> 100				> 100		> 100		> 100	99	> 100	> 100			
CC(=O)c1cc2c(Br)cccc2oc1=O		> 100		> 100				> 100		> 100		> 100		> 100	> 100	> 100	> 100			
CC1=CC(=O)NP(=O)(Oc2ccc(Cl)cc2)N1 (centres undefined)		> 100		> 100		> 100		> 100		> 100		> 100		> 100	> 100		> 100			
CC(C)(C)OC(=O)N(CCCCN(CCCn1c2c(c3ccccc3c1=O)C(=O)c1ccccc1-2)C(=O)OC(C)(C)C)CCCn1c2c(c3ccccc3c1=O)C(=O)c1ccccc1-2			54.6	> 100	79.6	> 100	26.2	> 100	58.5	> 100	72	> 100	> 100	> 100		41	> 100	10.9	> 100	
CNc1c2ccccc2nc2occ(Cl)c12					32.6	> 100	80.3	> 100	26.8	> 100	51.6	> 100	17.9	56.7	41.7	> 100	59.5	36	25.1	11.9
O=CNC(Cc1cnc[nH]1)C(=O)O (centres undefined)		> 100		> 100		> 100		> 100		> 100		> 100		> 100	> 100		> 100			
CC(NCCN(C)C)C1CCC2C3CCc4cc(O)ccc4C3CCC12C (centres undefined)		17.7		8.45		10.3		10.6		17.5		13.2		6.63	8.38		3.73			
COCN1COCN(C)C1=O		> 100		> 100		> 100				> 100		> 100		> 100	> 100	> 100	> 100			
COc1ccc(-c2cn(C)c3c2-n2cccc2C3=O)cc1O	14.6	51.5	18	> 100	3.71	16.4	10.1	40.8	11.4	50.5			3.05	8.29	9.4	6.46	9.28	2.48	1.77	2.82
COc1ccccc1/C=C1\C(=O)N(C(=O)Cc2ccccc2)N=C1C		> 100		> 100		> 100		> 100		> 100		> 100		> 100		> 100	> 100			
C=CCCC(O)c1cc(C)c(O)c(C)c1 (centres undefined)		> 100				> 100		> 100		> 100		> 100		> 100	> 100	> 100	> 100			
O=[N+]([O-])c1ccccc1/C=N\NC(=S)N/N=C/c1ccccc1[N+](=O)[O-]	8.11	> 100	4.04	> 100	2.55	> 100	2.15	21.7	5.73	> 100	6.71	> 100	13.7	> 100	28.4	> 100		20		2.49
COC1CCCc2c(OC(C)=O)ccc(OC(C)=O)c21 (centres undefined)						> 100				> 100		> 100		> 100		> 100	> 100			
O=c1[nH]c2nc3ccccc3c(=O)n2nc1Cc1ccccc1		> 100		> 100		> 100		> 100		> 100		> 100				> 100	> 100			
N#CN1CC[C@@H]2CC3(CCC2C1)OCCO3 (some centres undefined)		> 100		> 100		> 100				> 100		> 100		> 100	> 100	> 100	> 100			
